Results taken from patent US20200172549A1, “NOVEL CHLORIN E6-CURCUMIN DERIVATIVES, PREPARATION METHOD THEREOF, AND PHARMACEUTICAL COMPOSITION CONTAINING THE SAME FOR TREATMENT OF CANCER” (DONG SUNG PHARM. CO., LTD., priority 2017, published 2020).

Experiments:
[1] = Dark cytotoxicity, MTT assay, MIA-PaCa-2; assay type: cell-based; conditions: human, MIA-PaCa-2 cells, 3 h, no light, 72 h incubation, read-out: Cell viability, Dark cytotoxicity against MIA-PaCa-2; for viability at 3.12 μM: 3.12 μM photosensitizer; for viability at 6.25 μM: 6.25 μM photosensitizer; for viability at 12.5 μM: 12.5 μM photosensitizer; for viability at 25 μM: 25 μM photosensitizer; for viability at 50 μM: 50 μM photosensitizer
Description: (§1) Dark cytotoxicity: The culture of AsPC-1 pancreatic cancer cells were grown in RPMI-1640 medium (life technologies corporation, USA) supplemented with 10% heat-inactivated fetal bovine serum (life technologies corporation, USA) and 1 penicillin (life technologies corporation, USA), whereas MIA-paca2 and PANC-1 cells were grown in DMEM. The MTT assay was used to assess the cell viability of AsPC-1, MIA-paca2, PANC-1 cells. The cells attached to a 96-well plate (5,000 cells/well) were treated with 3.125 μM, 6.25 μM, 12.5 μM, 25 μM, 50 μM of photosensitizers, 7, 10, 13, 16, and 3 for 3 h. The cells were then incubated for 72 h at 37° C. in a 5% CO2 incubator and exposed to MTT [3-(4,5-dimethylthiazol-2-yl)-2,5-diphenyl-tetrazolium bromide] (250 μg/ml) for 3 h. The solution was changed to 200 μl of dimethylsulfoxide (DMSO, Sigma). After 30 min incubation and shaking in microplate mixer, the optical density (OD) was measured using a microplate reader (Thermo Fisher scientific, USA) at 570 nm wavelength. The cell viability was calculated using the following formula: Cell viability (%)=Mean optical density of treated wells/Mean optical density of control wells×100.

[2] = tested on: PANC-1; experiment: Phototoxicity (PDT), MTT assay, PANC-1; assay type: cell-based; conditions: for Cell viability, Phototoxicity against PANC-1: 3 h, 50 mW 0.09 J/cm^2 laser 100 sec, 72 h incubation; for inhibition at 25 µM: 25 μM concentration
Description: as §1, with “Phototoxicity: The culture” for “Dark cytotoxicity: The culture”, “USA) and 1% penicillin (life” for “USA) and 1 penicillin (life”, “3 h. The photosensitized cells were then irradiated with a 50 mW, 0.09 J/cm^2 laser for 100 sec. The cells” for “3 h. The cells”

[3] = Dark cytotoxicity, MTT assay, AsPC-1; assay type: cell-based; conditions: human, AsPC-1 pancreatic cancer cells, 3 h, no light, 72 h incubation, read-out: Cell viability, Dark Cytotoxicity against AsPC-1; for viability at 3.12 μM: 3.12 μM photosensitizer; for viability at 6.25 μM: 6.25 μM photosensitizer; for viability at 12.5 μM: 12.5 μM photosensitizer; for viability at 25 μM: 25 μM photosensitizer; for viability at 50 μM: 50 μM photosensitizer
Description: as §1

[4] = tested on: AsPC-1 pancreatic cancer cells; experiment: Phototoxicity (PDT), MTT assay, AsPC-1; assay type: cell-based; conditions: for Cell viability, Phototoxicity against AsPC-1: 3 h, 50 mW 0.09 J/cm^2 laser 100 sec, 72 h incubation; for inhibition at 25 µM: 25 μM concentration
Description: as §1, with “Phototoxicity: The culture” for “Dark cytotoxicity: The culture”, “USA) and 1% penicillin (life” for “USA) and 1 penicillin (life”, “3 h. The photosensitized cells were then irradiated with a 50 mW, 0.09 J/cm^2 laser for 100 sec. The cells” for “3 h. The cells”

[5] = Photophysical properties (absorption) in DMSO; assay type: physicochemical
Description: The photophysical properties of Ce6-curcumin conjugates and dimethyl ester ce6 were analyzed in dimethyl sulfoxide (DMSO). All the photosensitizers 7, 10, 13, and 16 (Formula IV) effectively absorbed the red light compared to dimethyl ester ce6. The major soret peak at λmax=405-408 nm and Q-bands at 667 nm for the photosensitizers 7, 10, 13, and 16 (Formula IV) and Q band peak at 656 for dimethyl ester ce6.

[6] = tested on: MIA-PaCa-2; experiment: Phototoxicity (PDT), MTT assay, MIA-PaCa-2; assay type: cell-based; conditions: for Cell viability, Phototoxicity against MIA-PaCa-2: 3 h, 50 mW 0.09 J/cm^2 laser 100 sec, 72 h incubation
Description: as §1, with “Phototoxicity: The culture” for “Dark cytotoxicity: The culture”, “USA) and 1% penicillin (life” for “USA) and 1 penicillin (life”, “3 h. The photosensitized cells were then irradiated with a 50 mW, 0.09 J/cm^2 laser for 100 sec. The cells” for “3 h. The cells”

[7] = Homo sapiens, PANC-1, with light
[8] = Homo sapiens, ASPC1, with light

| Compound | viability at 3.12 μM [1] | viability at 6.25 μM [1] | viability at 12.5 μM [1] | viability at 25 μM [1] | viability at 50 μM [1] | Cell viability, Phototoxicity against PANC-1 ([2]; 3.12 μM photosensitizer) | Cell viability, Phototoxicity against PANC-1 ([2]; 6.25 μM photosensitizer) | Cell viability, Phototoxicity against PANC-1 ([2]; 12.5 μM photosensitizer) | Cell viability, Phototoxicity against PANC-1 ([2]; 25 μM photosensitizer) | Cell viability, Phototoxicity against PANC-1 ([2]; 50 μM photosensitizer) | viability at 3.12 μM [3] | viability at 6.25 μM [3] | viability at 12.5 μM [3] | viability at 25 μM [3] | viability at 50 μM [3] | Cell viability, Phototoxicity against AsPC-1 ([4]; 3.12 μM photosensitizer) | Cell viability, Phototoxicity against AsPC-1 ([4]; 6.25 μM photosensitizer) | Cell viability, Phototoxicity against AsPC-1 ([4]; 12.5 μM photosensitizer) | Cell viability, Phototoxicity against AsPC-1 ([4]; 25 μM photosensitizer) | Cell viability, Phototoxicity against AsPC-1 ([4]; 50 μM photosensitizer) | also measured |
| --- | --- | --- | --- | --- | --- | --- | --- | --- | --- | --- | --- | --- | --- | --- | --- | --- | --- | --- | --- | --- | --- |
| C=Cc1c(C)c2cc3nc(c(CC(=O)O)c4[nH]c(cc5nc(cc1[nH]2)C(C)=C5CC)c(C)c4C(=O)O)[C@@H](CCC(=O)O)[C@@H]3C [Compound 3, Chlorin e6] | 98.8% | 101% | 100% | 99.6% | 100% | 104.37% | 82.85% | 30.03% | 8.57% | 7.61% | 98.8% | 101% | 100% | 99.6% | 100% | 91.05% | 76.65% | 66.31% | 37.32% | 17.52% | inhibition at 25 µM [2, 7]: 91%; inhibition at 25 µM [4, 8]: 63% |
| Dimethylester of Chlorine e6 [dimethyl ester ce6] | – | – | – | – | – | – | – | – | – | – | – | – | – | – | – | – | – | – | – | – | Q-band peak [5]: 656 nm |
| C=Cc1c(C)c2cc3nc(c(CC(=O)OC)c4[nH]c(cc5nc(cc1[nH]2)C(C)=C5CC)c(C)c4C(=O)NCCCCCCNC(=O)CCCC(=O)Oc1ccc(/C=C/C(=O)CC(=O)/C=C/c2ccc(O)c(OC)c2)cc1OC)C(CCC(=O)OC)C3C (centres unmarked) [Compound 10, Chlorine e6-curcumin Conjugate (10)] | 89.7% | 82% | 75.1% | 66.4% | 48.7% | 99.74% | 96.76% | 81.89% | 81.07% | 73.00% | 96.5% | 98.2% | 98.5% | 95% | 78.8% | 85.90% | 75.12% | 34.05% | 26.11% | 23.17% | Cell viability, Phototoxicity against MIA-PaCa-2 ([6]; 3.12 μM photosensitizer): 94.15%; Cell viability, Phototoxicity against MIA-PaCa-2 ([6]; 6.25 μM photosensitizer): 90.03%; Cell viability, Phototoxicity against MIA-PaCa-2 ([6]; 12.5 μM photosensitizer): 85.20%; Cell viability, Phototoxicity against MIA-PaCa-2 ([6]; 25 μM photosensitizer): 64.88%; Cell viability, Phototoxicity against MIA-PaCa-2 ([6]; 50 μM photosensitizer): 48.21%; Q-band peak [5]: 667 nm |
| C=Cc1c(C)c2cc3nc(c(CC(=O)OC)c4[nH]c(cc5nc(cc1[nH]2)C(C)=C5CC)c(C)c4C(=O)NCCOCCOCCNC(=O)CCCC(=O)Oc1ccc(/C=C/C(=O)CC(=O)/C=C/c2ccc(O)c(OC)c2)cc1OC)C(CCC(=O)OC)C3C (centres unmarked) [Compound 13, Chlorine e6-curcumin Conjugate (13)] | 114% | 115% | 114% | 96.3% | 66.8% | 8.51% | 7.71% | 7.53% | 8.04% | 7.28% | 105% | 108% | 106% | 98.5% | 78.7% | 7.34% | 6.61% | 6.48% | 6.58% | 6.58% | inhibition at 3 µM ([2]; Homo sapiens, PANC-1, 3 μM concentration, with light): > 90%; Cell viability, Phototoxicity against MIA-PaCa-2 ([6]; 3.12 μM photosensitizer): 4.68%; Cell viability, Phototoxicity against MIA-PaCa-2 ([6]; 6.25 μM photosensitizer): 5.07%; Cell viability, Phototoxicity against MIA-PaCa-2 ([6]; 12.5 μM photosensitizer): 4.93%; Cell viability, Phototoxicity against MIA-PaCa-2 ([6]; 25 μM photosensitizer): 5.39%; Cell viability, Phototoxicity against MIA-PaCa-2 ([6]; 50 μM photosensitizer): 5.90%; inhibition at 3 µM ([6]; Homo sapiens, MIA PaCa-2, 3 μM concentration, with light): > 90%; inhibition at 3 µM ([4]; Homo sapiens, ASPC1, 3 μM concentration, with light): > 90%; Q-band peak [5]: 667 nm |
| C=Cc1c(C)c2cc3nc(c(CC(=O)OC)c4[nH]c(cc5nc(cc1[nH]2)C(C)=C5CC)c(C)c4C(=O)NCCCOCCOCCOCCCNC(=O)CCCC(=O)Oc1ccc(/C=C/C(=O)CC(=O)/C=C/c2ccc(O)c(OC)c2)cc1OC)[C@@H](CCC(=O)OC)[C@@H]3C [Compound 16, Chlorine e6-curcumin Conjugate (16)] | 122% | 121% | 113% | 101% | 72.8% | 97.36% | 89.19% | 59.07% | 24.07% | 20.24% | 99.9% | 103% | 103% | 80.4% | 84.1% | 87.29% | 45.79% | 32.67% | 25.46% | 27.83% | inhibition at 25 µM [2, 7]: 76%; Cell viability, Phototoxicity against MIA-PaCa-2 ([6]; 3.12 μM photosensitizer): 80.67%; Cell viability, Phototoxicity against MIA-PaCa-2 ([6]; 6.25 μM photosensitizer): 17.62%; Cell viability, Phototoxicity against MIA-PaCa-2 ([6]; 12.5 μM photosensitizer): 9.49%; Cell viability, Phototoxicity against MIA-PaCa-2 ([6]; 25 μM photosensitizer): 8.03%; Cell viability, Phototoxicity against MIA-PaCa-2 ([6]; 50 μM photosensitizer): 9.67%; inhibition at 25 µM ([6]; Homo sapiens, MIA PaCa-2, 25 μM concentration, with light): 92%; inhibition at 25 µM [4, 8]: 75%; Q-band peak [5]: 667 nm |
